The target in assay [1] is SphK2. The following applies: read-out: SphK2 Ki; cited from earlier work.
Assay [2] addresses T1, human SphK2 (Homo sapiens, UniProt Q9NRA0).
T1 sequence (Q9NRA0 1-654): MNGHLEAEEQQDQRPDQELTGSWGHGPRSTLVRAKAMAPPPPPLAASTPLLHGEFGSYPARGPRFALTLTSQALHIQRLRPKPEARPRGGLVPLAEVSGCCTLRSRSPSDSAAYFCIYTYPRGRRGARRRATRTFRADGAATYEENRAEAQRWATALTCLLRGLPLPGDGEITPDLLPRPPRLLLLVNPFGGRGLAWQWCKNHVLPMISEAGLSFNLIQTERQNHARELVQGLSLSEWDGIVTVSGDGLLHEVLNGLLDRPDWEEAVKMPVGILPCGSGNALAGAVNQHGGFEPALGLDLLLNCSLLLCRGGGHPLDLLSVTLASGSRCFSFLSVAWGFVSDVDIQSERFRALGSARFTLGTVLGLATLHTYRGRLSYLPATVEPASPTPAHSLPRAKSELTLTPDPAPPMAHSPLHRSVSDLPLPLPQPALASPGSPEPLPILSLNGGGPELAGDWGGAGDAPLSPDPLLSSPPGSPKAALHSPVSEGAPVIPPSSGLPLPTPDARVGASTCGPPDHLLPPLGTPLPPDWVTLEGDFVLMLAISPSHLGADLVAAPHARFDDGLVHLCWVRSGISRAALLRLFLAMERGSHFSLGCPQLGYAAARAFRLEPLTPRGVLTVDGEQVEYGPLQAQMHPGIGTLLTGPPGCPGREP
Nature of the assay: Recombinant hSphK2 activity, single-concentration screen. The following applies: for inhibition at 0.3 µM: read-out: inhibition of hSphK2 activity, compound 0.3 μM.

Assay [3] concerns SphK2. Nature of the assay: FTY720-P formation in U937 cells treated with FTY720. In kind it is cell-based. The following applies: 1 μM FTY720, compound 0.1 μM to 1 μM, 2 hours, duplicate.
Assay [4] concerns U937 cells. Description: S1P levels in U937 cells by LC-MS/MS. The assay is classed as cell-based. Conditions: 0.1 to 1 μM, 2 hours, duplicate.
For assay [5], the target named is human SphK1 (Homo sapiens, UniProt Q9NYA1). Nature of the assay: Recombinant hSphK1 activity, single-concentration screen. The following applies: compound 1 μM.

The values below come from article PMC8224985 (European journal of medicinal chemistry, 2020).

Some results are limits rather than exact numbers.

human SphK1, sequence (Q9NYA1 whole entry): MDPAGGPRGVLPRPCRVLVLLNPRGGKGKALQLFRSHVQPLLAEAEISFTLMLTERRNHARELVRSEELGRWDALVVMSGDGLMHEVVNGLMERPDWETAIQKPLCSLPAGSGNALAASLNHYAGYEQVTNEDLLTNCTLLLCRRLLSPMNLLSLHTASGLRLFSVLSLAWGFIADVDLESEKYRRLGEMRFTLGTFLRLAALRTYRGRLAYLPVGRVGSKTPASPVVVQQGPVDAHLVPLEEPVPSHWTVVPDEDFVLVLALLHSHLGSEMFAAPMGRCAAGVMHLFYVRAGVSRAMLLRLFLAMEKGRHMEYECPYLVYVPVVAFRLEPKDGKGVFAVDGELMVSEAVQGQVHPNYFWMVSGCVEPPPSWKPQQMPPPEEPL

The term Ki denotes a dissociation constant, usually derived from enzyme kinetics or from competition with a known ligand. As to `O=C(NCc1ccncc1)C12CC3CC(C1)CC(c1ccc(Cl)cc1)(C3)C2` [ABC294640], the Ki in assay [1] was 10 µM. The term inhibition denotes the drop in the measured response relative to a control, in per cent. Take `CCCCCCCCCCn1cc(-c2noc([C@@H]3CCCN3C(=N)N)n2)c2ccccc21` [Compound 6h, (S)-Amino(2-(3-(1-decyl-1H-indol-3-yl)-1,2,4-oxadiazol-5-yl)pyrrolidin-1-yl)methaniminium chloride]: in assay [2], the inhibition at 0.3 µM was more than 50%. The same measure, in the same setting: with `CCCCCCCCCCCCn1cc(-c2noc([C@@H]3CCCN3C(=N)N)n2)c2ccccc21` [Compound 6j, (S)-Amino(2-(3-(1-dodecyl-1H-indol-3-yl)-1,2,4-oxadiazol-5-yl)pyrrolidin-1-yl)methaniminium chloride] the figure was more than 50%; with `CCCCCCCCCCn1ccc2c(-c3noc([C@@H]4CCCN4C(=N)N)n3)cccc21` [Compound 6n, (S)-Amino(2-(3-(1-decyl-1H-indol-4-yl)-1,2,4-oxadiazol-5-yl)pyrrolidin-1-yl)methaniminium chloride], 36%.

Regarding `CCCCCCCCCn1ccc2cc(-c3noc([C@@H]4CCCN4C(=N)N)n3)ccc21.Cl` [Compound 6r, (S)-Amino(2-(3-(1-nonyl-1H-indol-5-yl)-1,2,4-oxadiazol-5-yl)pyrrolidin-1-yl)methaniminium chloride], the “FTY720-P levels in cells” value in assay [3] is reported as “concomitant decrease in FTY720-P in a dose dependent manner”. Further, the “S1P levels in cells” value in assay [4] is reported as “dose-dependent decrease”.

For `CCCCCCCCCCn1ccc2cc(-c3noc([C@@H]4CCCN4C(=N)N)n3)ccc21` [Compound 6s, (S)-Amino(2-(3-(1-decyl-1H-indol-5-yl)-1,2,4-oxadiazol-5-yl)pyrrolidin-1-yl)methaniminium chloride], the inhibition at 0.3 µM in assay [2] was 70%. Still for that read-out and setting: with `CCCCCCCCCCn1ccc2ccc(-c3noc([C@@H]4CCCN4C(=N)N)n3)cc21` [Compound 6w, (S)-Amino(2-(3-(1-decyl-1H-indol-6-yl)-1,2,4-oxadiazol-5-yl)pyrrolidin-1-yl)methaniminium chloride] the figure was 32%. Consider `CCCCCCCCCn1cc(-c2noc(C[C@@H]3CCCN3C(=N)N)n2)c2ccccc21.Cl` [Compound 11, (S)-Amino(2-((3-(1-nonyl-1H-indol-3-yl)-1,2,4-oxadiazol-5-yl)methyl)pyrrolidin-1-yl)methaniminium chloride], for which the “effect on hSphK1 activity (in words)” value in assay [5] is “inactive”. Besides, the “effect on hSphK2 activity (in words)” value in assay [2] (compound 0.3 μM) was “inactive”.
